# Test results from US20130303566A1, “METHOD FOR TREATING MACULAR DEGENERATION” (DAVID W. HILL, priority 2012, published 2013).
# Experiments:
# patient with AMD = details: human, in vivo
# Experimental: To test the hypothesis that vasodilators can successfully treat AMD, TriMix injectable blend was obtained containing, in 10 ml of water, 0.4 ml ethanol, 0.3 g papaverine hydrochloride, 0.02 g phentolamine mesylate and 200 mcg prostaglandin. E1 (PGE1 or “alprostadil”), with 0.01 ml benzyl alcohol. […] The following example explores the role of administering Trimix to a patient with AMD.
# Initial doses were 1 mcg alprostadil, but were upped to 2 mcg of alprostadil for a period of time and then lowered to the original dose. Thus, on a daily basis, 0.85-0.10 mL of the above TriMix blend can be injected into the patient, delivering 1-2 mcg alprostadil, 0.1-0.2 mg phentolamine and 1.5-3.0 mg of papaverine.
# patients with dry AMD = details: 60 mcg PGE1 as alprostadil, intravenous infusion daily for 15 days, 15 patients with dry AMD; cited from earlier work
# damaged macular area = system: damaged macular area; design: species or system human; details: in vivo
Compound,tolerability of high doses (patient with AMD),trial outcome (patients with dry AMD),effect on vision (damaged macular area)
"CCCCC[C@H](O)/C=C/[C@H]1[C@H](O)CC(=O)[C@@H]1CCCCCCC(=O)O [PGE1, (11α,13E,15S)-11,15-Dihydroxy-9-osoprost-13-en-1-oic acid]",without any problems,lack of statistically significant results,
CC(=O)Nc1ccc(O)cc1 [acetaminophen],,,"cause the mask of the damaged macular area to appear colored, such as bright red, can cause misty vision"
CC(=O)Oc1ccccc1C(=O)O [aspirin],,,"cause the mask of the damaged macular area to appear colored, such as bright red, can cause misty vision"
COc1ccc2cc([C@H](C)C(=O)O)ccc2c1 [naproxen sodium],,,"cause the mask of the damaged macular area to appear colored, such as bright red, can cause misty vision"
